Measured values: patent US20250223268A1, “4-Methylsulfonylbenzamide Compound, Preparation Method, Herbicidal Composition And Use” (Jiangsu Flag Chemical Industry Co., Ltd., priority 2022, published 2025)

Key:
Test in all cases: Greenhouse herbicidal activity assay, post-emergence
Assay type in all cases: in vivo
Conditions in all cases: Post-emergence test, rate 150 g a.i./hm^2, grade by fresh weight inhibition rate
Eclipta prostrata = test system: Eclipta prostrata
Procedure, shortened: (§1)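 Weeds and crops grown in pots of nutrient soil in a growth chamber to the 3-6 leaf stage, then foliar-sprayed and air-dried. Fresh weight inhibition scored 14-21 days after treatment and graded A (≥80%) through E (<20%).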

Digitaria sanguinalis = test system: Digitaria sanguinalis
Procedure, shortened: as §1

Echinochloa crusgalli = test system: Echinochloa crusgalli
Procedure, shortened: as §1

Cyperus iria = test system: Cyperus iria
Procedure, shortened: as §1

Leptochloa chinensis = test system: Leptochloa chinensis
Procedure, shortened: as §1

SMILES	Control efficacy grade, Eclipta prostrata (Eclipta prostrata)	Control efficacy grade, Digitaria sanguinalis (Digitaria sanguinalis)	Control efficacy grade, Echinochloa crusgalli (Echinochloa crusgalli)	Control efficacy grade, Cyperus iria (Cyperus iria)	Control efficacy grade, Leptochloa chinensis (Leptochloa chinensis)	pest or weed control at 150 g/ha (Eclipta prostrata; Eclipta prostrata, read-out: Control efficacy grade, Eclipta prostrata) [%]	pest or weed control at 150 g/ha (Digitaria sanguinalis; Digitaria sanguinalis, read-out: Control efficacy grade, Digitaria sanguinalis) [%]	pest or weed control at 150 g/ha (Echinochloa crusgalli; Echinochloa crus-galli, read-out: Control efficacy grade, Echinochloa crusgalli) [%]	pest or weed control at 150 g/ha (Cyperus iria; Cyperus iria, read-out: Control efficacy grade, Cyperus iria) [%]	pest or weed control at 150 g/ha (Leptochloa chinensis; Dinebra chinensis, read-out: Control efficacy grade, Leptochloa chinensis) [%]
CS(=O)(=O)c1ccc(C(=O)Nc2nnco2)c(Cl)c1SCC1CC1 [Compound 3-298]	A (Fresh weight inhibition rate≥80% to 100%)	A (Fresh weight inhibition rate≥80% to 100%)	A (Fresh weight inhibition rate≥80% to 100%)	A (Fresh weight inhibition rate≥80% to 100%)	A (Fresh weight inhibition rate≥80% to 100%)	–	–	–	–	–
CS(=O)(=O)c1ccc(C(=O)Nc2nnco2)c(Cl)c1SC1CC1 [Compound 3-303]	A (Fresh weight inhibition rate≥80% to 100%)	A (Fresh weight inhibition rate≥80% to 100%)	A (Fresh weight inhibition rate≥80% to 100%)	B (Fresh weight inhibition rate≥260% to <80%)	A (Fresh weight inhibition rate≥80% to 100%)	–	–	–	–	–
CS(=O)(=O)c1ccc(C(=O)Nc2nnco2)c(Cl)c1SC1CCC1 [Compound 3-308]	A (Fresh weight inhibition rate≥80% to 100%)	A (Fresh weight inhibition rate≥80% to 100%)	A (Fresh weight inhibition rate≥80% to 100%)	A (Fresh weight inhibition rate≥80% to 100%)	A (Fresh weight inhibition rate≥80% to 100%)	–	–	–	–	–
CS(=O)(=O)c1ccc(C(=O)Nc2nnco2)c(Cl)c1SC1CCCC1 [Compound 3-313]	A (Fresh weight inhibition rate≥80% to 100%)	A (Fresh weight inhibition rate≥80% to 100%)	A (Fresh weight inhibition rate≥80% to 100%)	A (Fresh weight inhibition rate≥80% to 100%)	A (Fresh weight inhibition rate≥80% to 100%)	–	–	–	–	–
CS(=O)(=O)c1ccc(C(=O)Nc2nnco2)c(Cl)c1SC1CCCCC1 [Compound 3-318]	A (Fresh weight inhibition rate≥80% to 100%)	A (Fresh weight inhibition rate≥80% to 100%)	A (Fresh weight inhibition rate≥80% to 100%)	A (Fresh weight inhibition rate≥80% to 100%)	A (Fresh weight inhibition rate≥80% to 100%)	–	–	–	–	–
CS(=O)(=O)c1ccc(C(=O)Nc2nnco2)c(Cl)c1SCC(F)(F)F [Compound 3-323]	A (Fresh weight inhibition rate≥80% to 100%)	A (Fresh weight inhibition rate≥80% to 100%)	A (Fresh weight inhibition rate≥80% to 100%)	A (Fresh weight inhibition rate≥80% to 100%)	A (Fresh weight inhibition rate≥80% to 100%)	–	–	–	–	–
CS(=O)(=O)c1ccc(C(=O)Nc2nnco2)c(Cl)c1SCC(F)F [Compound 3-328]	A (Fresh weight inhibition rate≥80% to 100%)	A (Fresh weight inhibition rate≥80% to 100%)	A (Fresh weight inhibition rate≥80% to 100%)	A (Fresh weight inhibition rate≥80% to 100%)	A (Fresh weight inhibition rate≥80% to 100%)	–	–	–	–	–
C=CCSc1c(S(C)(=O)=O)ccc(C(=O)Nc2nnco2)c1Cl [Compound 3-338]	A (Fresh weight inhibition rate≥80% to 100%)	C (Fresh weight inhibition rate≥40% to <60%)	A (Fresh weight inhibition rate≥80% to 100%)	A (Fresh weight inhibition rate≥80% to 100%)	A (Fresh weight inhibition rate≥80% to 100%)	–	–	–	–	–
CS(=O)(=O)c1ccc(C(=O)Nc2nnco2)c(Cl)c1SCCC#N [Compound 3-373]	A (Fresh weight inhibition rate≥80% to 100%)	A (Fresh weight inhibition rate≥80% to 100%)	A (Fresh weight inhibition rate≥80% to 100%)	A (Fresh weight inhibition rate≥80% to 100%)	A (Fresh weight inhibition rate≥80% to 100%)	–	–	–	–	–
CCCSc1c(S(C)(=O)=O)ccc(C(=O)Nc2nnc(CC)o2)c1Cl [Compound 3-383]	A (Fresh weight inhibition rate≥80% to 100%)	B (Fresh weight inhibition rate≥260% to <80%)	A (Fresh weight inhibition rate≥80% to 100%)	A (Fresh weight inhibition rate≥80% to 100%)	B (Fresh weight inhibition rate≥260% to <80%)	–	–	–	–	–
CCc1nnc(NC(=O)c2ccc(S(C)(=O)=O)c([S+]([O-])C(C)C)c2Cl)o1 (stereo not drawn) [Compound 3-389, 2-chloro-N-(5-ethyl-1,3,4-oxadiazol-2-yl)-3-(isopropylsulfinyl)-4-(methylsulfonyl)benzamide]	–	–	–	–	–	80 to 100	80 to 100	80 to 100	80 to 100	80 to 100
CCc1nnc(NC(=O)c2ccc(S(C)(=O)=O)c(SCC3CC3)c2Cl)o1 [Compound 3-414]	A (Fresh weight inhibition rate≥80% to 100%)	A (Fresh weight inhibition rate≥80% to 100%)	A (Fresh weight inhibition rate≥80% to 100%)	A (Fresh weight inhibition rate≥80% to 100%)	A (Fresh weight inhibition rate≥80% to 100%)	–	–	–	–	–
CCc1nnc(NC(=O)c2ccc(S(C)(=O)=O)c(SC3CC3)c2Cl)o1 [Compound 3-419]	A (Fresh weight inhibition rate≥80% to 100%)	A (Fresh weight inhibition rate≥80% to 100%)	A (Fresh weight inhibition rate≥80% to 100%)	A (Fresh weight inhibition rate≥80% to 100%)	A (Fresh weight inhibition rate≥80% to 100%)	–	–	–	–	–
CCc1nnc(NC(=O)c2ccc(S(C)(=O)=O)c(SC3CCC3)c2Cl)o1 [Compound 3-424]	A (Fresh weight inhibition rate≥80% to 100%)	A (Fresh weight inhibition rate≥80% to 100%)	A (Fresh weight inhibition rate≥80% to 100%)	A (Fresh weight inhibition rate≥80% to 100%)	A (Fresh weight inhibition rate≥80% to 100%)	–	–	–	–	–
CCc1nnc(NC(=O)c2ccc(S(C)(=O)=O)c(SCC(F)(F)F)c2Cl)o1 [Compound 3-439]	A (Fresh weight inhibition rate≥80% to 100%)	A (Fresh weight inhibition rate≥80% to 100%)	A (Fresh weight inhibition rate≥80% to 100%)	A (Fresh weight inhibition rate≥80% to 100%)	A (Fresh weight inhibition rate≥80% to 100%)	–	–	–	–	–
